Data taken from US9096595B2, “7-(heteroaryl-amino)-6,7,8,9-tetrahydropyrido[1,2-a]indol acetic acid derivatives and their use as prostaglandin D2 receptor modulators” (Actelion Pharmaceuticals Ltd, priority 2011, dated 2015).

Key:
hCRTH2 receptor [1] = biological target: T1, hCRTH2 receptor (Homo sapiens (Human), UniProt Q9Y5Y4); experiment: Radioligand displacement assay in presence of human serum albumin (HSA); conditions: 3H-PGD2 2.5 nM, HEK293-hCRTH2 membrane fragments, Binding-Buffer-HSA with 0.5% human serum albumin instead of 0.1% BSA
Experimental: (§1) First, recombinant HEK293-hCRTH2 cells were detached from culture plates into 5 ml buffer A/plate (Buffer A: 5 mM Tris, 1 mM MgCl2-6H2O pH=7.4) using a rubber policeman. Cells were then transferred into centrifugation tubes and centrifuged for 5 min at 400 g. The cell pellet was resuspended in the same buffer and tubes were frozen at −80° C. Cells were thawed and membrane fragments were generated by homogenization using a polytron homogenizer (30 seconds). The membrane fragments were then centrifuged at 3000 g for 20 minutes and resuspended in buffer C (Buffer C: 75 mM Tris, 25 mM MgCl2, 250 mM Saccharose pH 7.4). Aliquots of membrane fragments were stored at −20° C.
(§2) Binding assay was performed in a final assay volume of 250 μl. First, 25 μl of test compound, previously diluted in Binding-Buffer (Binding-Buffer: 50 mM Tris-Base, 100 mM NaCl, 1 mM EDTA, 0.1% BSA (protease free), 0.01% NaN3, 10 mM MnCl2 pH 7.0) was placed into each well. After addition of 75 μl Binding-Buffer, 50 μl of the radioligand ^3H-PGD2 (at 2.5 nM (220.000 dpm/well) from ANAWA ART0662) was added to each well. Binding assay was started by addition of 100 μl CRTH2 membrane fragments, reaching a final concentration of 20 μg/well. For non-specific binding, PGD2 was added to the reaction mixture to […] final concentration. This assay mix was incubated for 90 minutes at room temperature and then filtered through a GF/C filter 96-well plate which was pre-soaked for 3 hours in 0.5% polyethyleneimine (PEI). The filter-wells were washed three times with ice cold Binding-Buffer. Then, 40 μl of Microscint-40 (Packard) was added to each well and the retained radioactivity quantified in a Topcount (Packard).
Radioligand displacement assay in presence of human serum albumin (HSA) was performed as described above, with following modifications. Binding-Buffer-HSA: Binding-buffer+0.5% Sigma Albumin from Human serum A1887 (instead of 0.1% BSA). A volume of 25 μl test compound, previously diluted in Binding-Buffer-HSA was placed into each well. After addition of 75 μl Binding-Buffer-HSA, 50 μl of ^3H-PGD2 (at 2.5 nM (220.000 dpm/well) from ANAWA ART0662) was added to each well. Remaining protocol was identical as described above.

hCRTH2 receptor [2] = biological target: T1, hCRTH2 receptor; experiment: hCRTH2 receptor membranes radioligand (3H-PGD2) displacement assay; conditions: 3H-PGD2 2.5 nM, HEK293-hCRTH2 membrane fragments, Binding-Buffer with 0.1% BSA
Experimental: as §1, §2

T1 sequence (Q9Y5Y4 whole entry, the tested form may be a part): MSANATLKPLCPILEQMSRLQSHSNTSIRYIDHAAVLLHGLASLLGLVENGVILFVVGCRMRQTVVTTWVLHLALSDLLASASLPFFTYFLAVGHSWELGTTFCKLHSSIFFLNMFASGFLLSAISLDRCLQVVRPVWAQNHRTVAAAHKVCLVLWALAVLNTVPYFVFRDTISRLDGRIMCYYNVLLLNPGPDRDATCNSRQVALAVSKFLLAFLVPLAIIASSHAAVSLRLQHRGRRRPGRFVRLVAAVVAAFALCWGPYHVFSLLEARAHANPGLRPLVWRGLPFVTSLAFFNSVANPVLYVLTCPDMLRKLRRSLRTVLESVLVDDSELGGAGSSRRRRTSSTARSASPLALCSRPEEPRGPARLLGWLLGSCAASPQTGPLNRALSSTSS

Row | Structure (SMILES) | IC50 (hCRTH2 receptor [1]) [nM] | IC50 (hCRTH2 receptor [2]) [nM]
1 | CN(c1ncc(F)cn1)C1CCc2c(CC(=O)O)c3ccc(C(F)(F)F)cc3n2C1 (stereo not drawn) [Example 24, 2-(7-((5-fluoropyrimidin-2-yl)(methyl)amino)-3-(trifluoromethyl)-6,7,8,9-tetrahydropyrido[1,2-a]indol-10-yl)acetic acid] | 11 | 5
2 | CN(c1nc2ccc(F)cc2s1)C1CCc2c(CC(=O)O)c3ccc(C(F)(F)F)cc3n2C1 (stereo not drawn) [Example 26, 2-(7-((6-fluorobenzo[d]thiazol-2-yl)(methyl)amino)-3-(trifluoromethyl)-6,7,8,9-tetrahydropyrido[1,2-a]indol-10-yl)acetic acid] | 15 | 16
3 | CN(c1nc2cc(F)ccc2o1)C1CCc2c(CC(=O)O)c3ccc(C(F)(F)F)cc3n2C1 (stereo not drawn) [Example 28, 2-(7-((5-fluorobenzo[d]oxazol-2-yl)(methyl)amino)-3-(trifluoromethyl)-6,7,8,9-tetrahydropyrido[1,2-a]indol-10-yl)acetic acid] | 20 | 8
4 | CN(c1nc2cc(F)ccc2o1)C1CCc2c(CC(=O)O)c3ccc(Cl)cc3n2C1 (stereo not drawn) [Example 31, 2-(3-chloro-7-((5-fluorobenzo[d]oxazol-2-yl)(methyl)amino)-6,7,8,9-tetrahydropyrido[1,2-a]indol-10-yl)acetic acid] | 13 | 5
5 | O=C(O)Cc1c2n(c3cc(F)ccc13)CC(Nc1ncc(F)cn1)CC2 (stereo not drawn) [Example 34, 2-(3-fluoro-7-((5-fluoropyrimidin-2-yl)amino)-6,7,8,9-tetrahydropyrido[1,2-a]indol-10-yl)acetic acid] | 304 | 9
6 | O=C(O)Cc1c2n(c3cc(F)ccc13)CC(Nc1nc3cc(F)ccc3o1)CC2 (stereo not drawn) [Example 35, 2-(3-fluoro-7-((5-fluorobenzo[d]oxazol-2-yl)amino)-6,7,8,9-tetrahydropyrido[1,2-a]indol-10-yl)acetic acid] | 20 | 11
7 | O=C(O)Cc1c2n(c3cc(Cl)ccc13)CC(Nc1ncc(F)cn1)CC2 (stereo not drawn) [Example 36, 2-(3-chloro-7-((5-fluoropyrimidin-2-yl)amino)-6,7,8,9-tetrahydropyrido[1,2-a]indol-10-yl)acetic acid] | 465 | 65
8 | O=C(O)Cc1c2n(c3cc(Cl)ccc13)CC(Nc1ncc(Cl)cn1)CC2 (stereo not drawn) [Example 37, 2-(3-chloro-7-((5-chloropyrimidin-2-yl)amino)-6,7,8,9-tetrahydropyrido[1,2-a]indol-10-yl)acetic acid] | 385 | 27
9 | Cc1cnc(N(C)C2CCc3c(CC(=O)O)c4ccc(Cl)cc4n3C2)nc1 (stereo not drawn) [Example 38, 2-(3-chloro-7-(methyl(5-methylpyrimidin-2-yl)amino)-6,7,8,9-tetrahydropyrido[1,2-a]indol-10-yl)acetic acid] | 246 | 2
10 | CN(c1ncc2ccccc2n1)C1CCc2c(CC(=O)O)c3ccc(Cl)cc3n2C1 (stereo not drawn) [Example 39, 2-(3-chloro-7-(methyl(quinazolin-2-yl)amino)-6,7,8,9-tetrahydropyrido[1,2-a]indol-10-yl)acetic acid] | 5 | 3
11 | CN(c1ncc2cc(F)ccc2n1)C1CCc2c(CC(=O)O)c3ccc(Cl)cc3n2C1 (stereo not drawn) [Example 40, 2-(3-chloro-7-((6-fluoroquinazolin-2-yl)(methyl)amino)-6,7,8,9-tetrahydropyrido[1,2-a]indol-10-yl)acetic acid] | 4 | 5
12 | CN(c1ncc2ccc(F)cc2n1)C1CCc2c(CC(=O)O)c3ccc(Cl)cc3n2C1 (stereo not drawn) [Example 41, 2-(3-chloro-7-((7-fluoroquinazolin-2-yl)(methyl)amino)-6,7,8,9-tetrahydropyrido[1,2-a]indol-10-yl)acetic acid] | 37 | 1
13 | CN(c1cnc2cc(F)ccc2n1)C1CCc2c(CC(=O)O)c3ccc(Cl)cc3n2C1 (stereo not drawn) [Example 43, 2-(3-chloro-7-((6-fluoroquinoxalin-2-yl)(methyl)amino)-6,7,8,9-tetrahydropyrido[1,2-a]indol-10-yl)acetic acid] | 12 | 2
14 | O=C(O)Cc1c2n(c3cc(Cl)ccc13)CC(N(CC(F)F)c1nc3cc(F)ccc3o1)CC2 (stereo not drawn) [Example 44, 2-(3-chloro-7-((2,2-difluoroethyl)(5-fluorobenzo[d]oxazol-2-yl)amino)-6,7,8,9-tetrahydropyrido[1,2-a]indol-10-yl)acetic acid] | 6 | 3
15 | CCN(c1ncc(F)cn1)C1CCc2c(CC(=O)O)c3ccc(Cl)cc3n2C1 (stereo not drawn) [Example 45, 2-(3-chloro-7-(ethyl(5-fluoropyrimidin-2-yl)amino)-6,7,8,9-tetrahydropyrido[1,2-a]indol-10-yl)acetic acid] | 3 | 1
16 | CC(C)N(c1nc2cc(F)ccc2o1)C1CCc2c(CC(=O)O)c3ccc(Cl)cc3n2C1 (stereo not drawn) [Example 46, 2-(3-chloro-7-((5-fluorobenzo[d]oxazol-2-yl)(isopropyl)amino)-6,7,8,9-tetrahydropyrido[1,2-a]indol-10-yl)acetic acid] | 5 | 3
17 | COCCN(c1ncc(F)cn1)C1CCc2c(CC(=O)O)c3ccc(Cl)cc3n2C1 (stereo not drawn) [Example 47, 2-(3-chloro-7-((5-fluoropyrimidin-2-yl)(2-methoxyethyl)amino)-6,7,8,9-tetrahydropyrido[1,2-a]indol-10-yl)acetic acid] | 69 | 0.8
18 | CC(C)CN(c1nc2cc(F)ccc2o1)C1CCc2c(CC(=O)O)c3ccc(Cl)cc3n2C1 (stereo not drawn) [Example 48, 2-(3-chloro-7-((5-fluorobenzo[d]oxazol-2-yl)(isobutyl)amino)-6,7,8,9-tetrahydropyrido[1,2-a]indol-10-yl)acetic acid] | 6 | 2
19 | CCCN(c1ncc(F)cn1)C1CCc2c(CC(=O)O)c3ccc(Cl)cc3n2C1 (stereo not drawn) [Example 49, 2-(3-chloro-7-((5-fluoropyrimidin-2-yl)(propyl)amino)-6,7,8,9-tetrahydropyrido[1,2-a]indol-10-yl)acetic acid] | 21 | 1
20 | CCN(c1nc2cc(F)ccc2o1)C1CCc2c(CC(=O)O)c3ccc(Cl)cc3n2C1 (stereo not drawn) [Example 50, 2-(3-chloro-7-(ethyl(5-fluorobenzo[d]oxazol-2-yl)amino)-6,7,8,9-tetrahydropyrido[1,2-a]indol-10-yl)acetic acid] | 9 | 1
21 | O=C(O)Cc1c2n(c3cc(Cl)ccc13)CC(N(CC1CC1)c1ncc(F)cn1)CC2 (stereo not drawn) [Example 51, 2-(3-chloro-7-((cyclopropylmethyl)(5-fluoropyrimidin-2-yl)amino)-6,7,8,9-tetrahydropyrido[1,2-a]indol-10-yl)acetic acid] | 9 | 0.6
